Key:
Assay in all cases: relative viability (nuclei count vs DMSO), 5 days (fraction); higher = more cells survive
Temozolomide + OSI-027 = compound: Cn1nnc2c(C(N)=O)ncn2c1=O [Temozolomide] + COc1cccc2cc(-c3nc([C@H]4CC[C@H](C(=O)O)CC4)n4ncnc(N)c34)[nH]c12 [OSI-027] (partner 0.5 µM)
Summary of the method: (§1)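 Each reported value is a median over duplicate plates. It expresses relative viability: treated-well nuclei count divided by vehicle-well nuclei count. Lung cancer cell lines in 1536-well plates were dosed by pin tool a day after seeding, alone with one drug or with a fixed anchor-drug dose plus five library-drug doses (not always all listed) in √10 steps, and nuclei were counted after 5 days.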

Temozolomide + Lapatinib = compound: Cn1nnc2c(C(N)=O)ncn2c1=O [Temozolomide] + CS(=O)(=O)CCNCc1ccc(-c2ccc3ncnc(Nc4ccc(OCc5cccc(F)c5)c(Cl)c4)c3c2)o1 [Lapatinib] (partner 2 µM)
Summary of the method: as §1

AZD5582 + Foretinib = compound: C[C@@H](C(=O)N[C@@H](C1CCCCC1)C(=O)N2CCC[C@H]2C(=O)N[C@@H]3[C@@H](CC4=CC=CC=C34)OCC#CC#CCO[C@@H]5CC6=CC=CC=C6[C@@H]5NC(=O)[C@@H]7CCCN7C(=O)[C@H](C8CCCCC8)NC(=O)[C@H](C)NC)NC [AZD5582] + COc1cc2c(Oc3ccc(NC(=O)C4(C(=O)Nc5ccc(F)cc5)CC4)cc3F)ccnc2cc1OCCCN1CCOCC1 [Foretinib] (partner 0.25 µM)
Summary of the method: as §1

[1] = compound: Cn1nnc2c(C(N)=O)ncn2c1=O [Temozolomide] + Nc1nc2[nH]cc(CCc3ccc(C(=O)N[C@@H](CCC(=O)O)C(=O)O)cc3)c2c(=O)[nH]1 [Pemetrexed] (partner 0.2 µM)
Summary of the method: as §1

Cell Line	relative viability (Temozolomide + OSI-027; first compound 0.2 µM)	relative viability (Temozolomide + OSI-027; first compound 0.6325 µM)	relative viability (Temozolomide + OSI-027; first compound 2 µM)	relative viability (Temozolomide + OSI-027; first compound 6.325 µM)	relative viability (Temozolomide + OSI-027; first compound 20 µM)	relative viability (Temozolomide + Lapatinib; first compound 0.2 µM)	relative viability (Temozolomide + Lapatinib; first compound 0.6325 µM)	relative viability (Temozolomide + Lapatinib; first compound 2 µM)	relative viability (Temozolomide + Lapatinib; first compound 6.325 µM)	relative viability (Temozolomide + Lapatinib; first compound 20 µM)	relative viability (AZD5582 + Foretinib; first compound 0.001581 µM)	relative viability (AZD5582 + Foretinib; first compound 0.005 µM)	relative viability (AZD5582 + Foretinib; first compound 0.01581 µM)	relative viability (AZD5582 + Foretinib; first compound 0.05 µM)	relative viability ([1]; first compound 0.6325 µM)	relative viability ([1]; first compound 2 µM)	relative viability ([1]; first compound 6.325 µM)	relative viability ([1]; first compound 20 µM)	relative viability ([1]; first compound 0.2 µM)
NCI-H727	0.638	0.779	0.712	0.493	0.534	0.907	0.804	0.865	0.665	0.693	0.867	1.03	1.01	0.825	–	–	–	–	–
NCI-H1299	–	–	–	–	–	1.03	0.98	0.994	0.97	0.962	1.05	1.11	1.04	1.03	–	–	–	–	–
NCI-H1623	–	0.462	0.471	0.388	0.297	–	–	–	–	–	0.831	0.971	0.917	0.888	–	–	–	–	–
NCI-H1648	–	0.23	0.262	0.235	0.274	–	–	–	–	–	–	–	–	–	0.614	0.554	0.696	0.82	–
NCI-H1792	0.552	0.739	0.689	0.681	0.736	1.06	0.973	0.895	0.899	0.861	–	–	–	–	0.993	0.954	0.819	1.01	1.11
NCI-H2342	0.544	0.665	0.618	0.59	0.678	–	–	–	–	–	1.04	1.11	1.07	1.27	0.86	0.914	0.708	0.769	0.653
SW 900	0.569	0.618	0.47	0.5	0.744	–	–	–	–	–	0.866	0.666	0.895	0.451	0.496	0.507	0.474	0.472	0.525

From the supplement of paper PMC10307832
